Measurements: patent US11117930B2, “Peptide inhibitors of transcription factor aggregation” (ADRX, INC., priority 2017, dated 2021)
Like-named read-outs stand apart in the source and are kept apart here. Non-standard residues stand in square brackets, D forms with d. Residues, ends and D or L forms follow the SMILES beside them. No end group written: not given here.

Experiments:
[1] = Protein binding in human serum; type: in vitro ADME; conditions: CPP linked peptides
[2] = Stability in human serum; type: in vitro ADME; conditions: CPP linked peptides, read-out: Stability in Human Serum (t1/2)
[3] = tested on: Detroit-562; type: cell-based; conditions: 24 h
Experimental: (§1) To render the inhibitors cell permeable, the peptides are fused to either a nine-residue poly L-Arg tag or a nine-residue poly D-Arg tag, through one of several three-residue linkers, either L-RPI, D-RPI, or D-GGG. Cancer cell lines, e.g. OVCAR-3, and Detroit 562 are treated with the peptide conjugates for 24 hours by the following method. OVCAR3 and Detroit-562 cells are grown in ATCC recommended growth media. The peptides were made in a 4 mM stock. Cells are plated in 96-well flat bottom clear plates at 7000 cells/well. After 24 hours, compounds are serially diluted in one-third [starting at 33 μM] or one-half [starting at 30 μM] dilutions in PrEGM media (Lonza). Growth media was removed from the wells and compound in PrEGM was added to 100 ul final volume. 24 hours post-compound addition cell metabolism was measured by addition of 20 μl MTS solution (Promega, cell-titer 96 aqueous). Absorbance was read at 490 nm following a 2 hour incubation and data was processed in Prism Graphpad to generate EC50 values.

[4] = tested on: OVCAR3; type: cell-based; conditions: 24 h
Experimental: as §1

Compound	fraction unbound [1]	half-life ([2]; cells given in hr) [h]	EC50 [3] [µM]	EC50 [4] [µM]	half-life [2] [h]
N=C(N)NCCC[C@@H](N)C(=O)N[C@H](CCCNC(=N)N)C(=O)N[C@H](CCCNC(=N)N)C(=O)N[C@H](CCCNC(=N)N)C(=O)N[C@H](CCCNC(=N)N)C(=O)N[C@H](CCCNC(=N)N)C(=O)N[C@H](CCCNC(=N)N)C(=O)N[C@H](CCCNC(=N)N)C(=O)N[C@H](CCCNC(=N)N)C(=O)NCC(=O)NCC(=O)NCC(=O)N[C@H](Cc1ccc(O)cc1)C(=O)N[C@H](CCC(N)=O)C(=O)N[C@H](Cc1c[nH]c2ccccc12)C(=O)N[C@H](Cc1ccc(O)cc1)C(=O)N[C@H](CCCNC(=N)N)C(=O)N[C@H](Cc1c[nH]c2ccccc12)C(=O)N[C@H](CCC(N)=O)C(=O)O [rrrrrrrrrgggyqwyrwq] (H-[dR][dR][dR][dR][dR][dR][dR][dR][dR]GGG[dY][dQ][dW][dY][dR][dW][dQ]-OH; N-terminus and C-terminus assumed)	0.11	> 24	8	6	–
CC[C@@H](C)[C@@H](NC(=O)[C@H]1CCCN1C(=O)[C@@H](CCCNC(=N)N)NC(=O)[C@@H](CCCNC(=N)N)NC(=O)[C@@H](CCCNC(=N)N)NC(=O)[C@@H](CCCNC(=N)N)NC(=O)[C@@H](CCCNC(=N)N)NC(=O)[C@@H](CCCNC(=N)N)NC(=O)[C@@H](CCCNC(=N)N)NC(=O)[C@@H](CCCNC(=N)N)NC(=O)[C@@H](CCCNC(=N)N)NC(=O)[C@H](N)CCCNC(=N)N)C(=O)N[C@H](Cc1c[nH]cn1)C(=O)N[C@H](CC(C)C)C(=O)N[C@H](CCCNC(=N)N)C(=O)N[C@@H](C(=O)N[C@H](Cc1c[nH]c2ccccc12)C(=O)N[C@H](CCCNC(=N)N)C(=O)N[C@H](CC(N)=O)C(=O)O)[C@H](C)CC [rrrrrrrrrrpihlriwrn] (H-[dR][dR][dR][dR][dR][dR][dR][dR][dR][dR][dP][dI][dH][dL][dR][dI][dW][dR][dN]-OH; N-terminus and C-terminus assumed)	0.05	> 24	4	4	–
CC[C@@H](C)[C@@H](NC(=O)[C@H]1CCCN1C(=O)[C@@H](CCCNC(=N)N)NC(=O)[C@@H](CCCNC(=N)N)NC(=O)[C@@H](CCCNC(=N)N)NC(=O)[C@@H](CCCNC(=N)N)NC(=O)[C@@H](CCCNC(=N)N)NC(=O)[C@@H](CCCNC(=N)N)NC(=O)[C@@H](CCCNC(=N)N)NC(=O)[C@@H](CCCNC(=N)N)NC(=O)[C@@H](CCCNC(=N)N)NC(=O)[C@H](N)CCCNC(=N)N)C(=O)N[C@H](Cc1c[nH]cn1)C(=O)N[C@H](CCC(N)=O)C(=O)N[C@H](CCCNC(=N)N)C(=O)N[C@H](CCC(N)=O)C(=O)N[C@H](Cc1ccc(O)cc1)C(=O)N[C@H](CCC(N)=O)C(=O)N[C@H](CCCNC(=N)N)C(=O)O [rrrrrrrrrrpihqrqyqr] (H-[dR][dR][dR][dR][dR][dR][dR][dR][dR][dR][dP][dI][dH][dQ][dR][dQ][dY][dQ][dR]-OH; N-terminus and C-terminus assumed)	0.88	> 24	35	27	–
CC[C@@H](C)[C@@H](NC(=O)[C@H]1CCCN1C(=O)[C@@H](CCCNC(=N)N)NC(=O)[C@@H](CCCNC(=N)N)NC(=O)[C@@H](CCCNC(=N)N)NC(=O)[C@@H](CCCNC(=N)N)NC(=O)[C@@H](CCCNC(=N)N)NC(=O)[C@@H](CCCNC(=N)N)NC(=O)[C@@H](CCCNC(=N)N)NC(=O)[C@@H](CCCNC(=N)N)NC(=O)[C@@H](CCCNC(=N)N)NC(=O)[C@H](N)CCCNC(=N)N)C(=O)N[C@H](CCCCN)C(=O)N[C@H](Cc1ccccc1)C(=O)N[C@H](CCCNC(=N)N)C(=O)N[C@H](Cc1ccccc1)C(=O)N[C@H](Cc1ccc(O)cc1)C(=O)N[C@H](Cc1c[nH]cn1)C(=O)N[C@H](CCCNC(=N)N)C(=O)O [rrrrrrrrrrpikfrfyhr] (H-[dR][dR][dR][dR][dR][dR][dR][dR][dR][dR][dP][dI][dK][dF][dR][dF][dY][dH][dR]-OH)	0.14	> 24	5	4	–
CC[C@@H](C)[C@@H](NC(=O)[C@H]1CCCN1C(=O)[C@@H](CCCNC(=N)N)NC(=O)[C@@H](CCCNC(=N)N)NC(=O)[C@@H](CCCNC(=N)N)NC(=O)[C@@H](CCCNC(=N)N)NC(=O)[C@@H](CCCNC(=N)N)NC(=O)[C@@H](CCCNC(=N)N)NC(=O)[C@@H](CCCNC(=N)N)NC(=O)[C@@H](CCCNC(=N)N)NC(=O)[C@@H](CCCNC(=N)N)NC(=O)[C@H](N)CCCNC(=N)N)C(=O)N[C@H](CCCCN)C(=O)N[C@H](Cc1c[nH]c2ccccc12)C(=O)N[C@H](CCCNC(=N)N)C(=O)N[C@H](Cc1c[nH]c2ccccc12)C(=O)N[C@H](Cc1ccc(O)cc1)C(=O)N[C@H](CCCNC(=N)N)C(=O)N[C@H](CCCNC(=N)N)C(=O)O [rrrrrrrrrrpikwrwyrr] (H-[dR][dR][dR][dR][dR][dR][dR][dR][dR][dR][dP][dI][dK][dW][dR][dW][dY][dR][dR]-OH; N-terminus and C-terminus assumed)	0.06	> 24	5	4	–
CC[C@@H](C)[C@@H](NC(=O)[C@H]1CCCN1C(=O)[C@@H](CCCNC(=N)N)NC(=O)[C@@H](CCCNC(=N)N)NC(=O)[C@@H](CCCNC(=N)N)NC(=O)[C@@H](CCCNC(=N)N)NC(=O)[C@@H](CCCNC(=N)N)NC(=O)[C@@H](CCCNC(=N)N)NC(=O)[C@@H](CCCNC(=N)N)NC(=O)[C@@H](CCCNC(=N)N)NC(=O)[C@@H](CCCNC(=N)N)NC(=O)[C@H](N)CCCNC(=N)N)C(=O)N[C@H](CCCNC(=N)N)C(=O)N[C@@H](C(=O)N[C@H](Cc1c[nH]cn1)C(=O)N[C@H](Cc1ccc(O)cc1)C(=O)N[C@H](Cc1ccccc1)C(=O)N[C@H](CCCNC(=N)N)C(=O)N[C@H](CCCNC(=N)N)C(=O)O)[C@H](C)CC [rrrrrrrrrrpirihyfrr] (H-[dR][dR][dR][dR][dR][dR][dR][dR][dR][dR][dP][dI][dR][dI][dH][dY][dF][dR][dR]-OH; N-terminus and C-terminus assumed)	0.07	> 24	5	4	–
CC[C@@H](C)[C@@H](NC(=O)[C@H]1CCCN1C(=O)[C@@H](CCCNC(=N)N)NC(=O)[C@@H](CCCNC(=N)N)NC(=O)[C@@H](CCCNC(=N)N)NC(=O)[C@@H](CCCNC(=N)N)NC(=O)[C@@H](CCCNC(=N)N)NC(=O)[C@@H](CCCNC(=N)N)NC(=O)[C@@H](CCCNC(=N)N)NC(=O)[C@@H](CCCNC(=N)N)NC(=O)[C@@H](CCCNC(=N)N)NC(=O)[C@H](N)CCCNC(=N)N)C(=O)N[C@H](Cc1ccc(O)cc1)C(=O)N[C@H](CCC(N)=O)C(=O)N[C@H](Cc1c[nH]c2ccccc12)C(=O)N[C@H](Cc1ccc(O)cc1)C(=O)N[C@H](CCCNC(=N)N)C(=O)N[C@H](Cc1c[nH]c2ccccc12)C(=O)N[C@H](CCC(N)=O)C(=O)O [rrrrrrrrrrpiyqwyrwq] (H-[dR][dR][dR][dR][dR][dR][dR][dR][dR][dR][dP][dI][dY][dQ][dW][dY][dR][dW][dQ]-OH)	0.01	> 24	5	6	–
PRRRRRRRRRRPIIRIRHYRP	0.11	–	12	10	1.93
PRRRRRRRRRRPILRIRYWKP	0.02	–	5	5	3.33
PRRRRRRRRRRPITRIRFYRP	0.11	–	9	8	1.72
RRRRRRRRRRPIIRIRHYP [RRRRRRRRRRPIIRIRHYP]	0.17	–	7	6	4.92
RRRRRRRRRRPIIRIRHYR [RRRRRRRRRRPIIRIRHYR]	0.16	–	6	6	0.5
RRRRRRRRRRPIIRIRHYRP	0.19	–	7	7	2.07
RRRRRRRRRRPILTRITLE [RRRRRRRRRRPILTRITLE, reference compound]	0.34	–	9	8	5.65
